# Experimental data taken from patent publication US6248739A, “Quinolinecarboxamides as antiviral agents” (Pharmacia & Upjohn Company, priority 1999, dated 2001).
# Counter-ions that a name gives are not always drawn. Like-named read-outs stand apart in the source and are kept apart here.
# Molecular target: T1, HCMV polymerase (Human cytomegalovirus, UniProt P08546)
# T1 construct: made in house; host or cells: recombinant baculovirus-infected SF-9 insect cells
# Assay: biochemical
# Protocol: The HCMV polymerase assay is performed using a scintillation proximity assay (SPA) as described in several references, such as N. D. Cook, et al., Pharmaceutical Manufacturing International, pages 49-53 (1992); K. Takeuchi, Laboratory Practice, September issue (1992); U.S. Pat. No. 4,568,649 (1986); which are incorporated by reference herein. Reactions are performed in 96-well plates. The assay is conducted in 100 μl volume with 5.4 mM HEPES (pH 7.5), 11.7 mM KCl, 4.5 mM MgCl2, 0.36 mg/ml BSA, and 90 nM ^3 H-dTTP. Assays are run with and without CHAPS, (3-[(3-Cholamidopropyl)dimethylammonio]-1-propane-sulfonate) at a final concentration of 2 mM. HCMV polymerase is diluted in enzyme dilution buffer containing 50% glycerol, 250 mM NaCl, 10 mM HEPES (pH 7.5), 100 μg/ml BSA, and 0.01% sodium azide. The HCMV polymerase, which is expressed in recombinant baculovirus-infected SF-9 cells and purified according to literature procedures, is added at 10% (or 10 μl) of the final reaction volume, i.e., 100 μl. Compounds are diluted in 50% DMSO and 10 μl are added to each well. Control wells contain an equivalent concentration of DMSO. Unless noted otherwise, reactions are initiated via the addition of 6 nM biotinylated poly(dA)-oligo(dT) template/primer to reaction mixtures containing the enzyme, substrate, and compounds of interest. Plates are incubated in a 25 C. or 37 C. H2 O bath and terminated via the addition of 40 μl/reaction of 0.5 M EDTA (pH 8) per well. Reactions are terminated within the time-frame during which substrate incorporation is linear and varied depending upon the enzyme and conditions used, i.e., 30 min. for HCMV polymerase. Ten μl of streptavidin-SPA beads (20 mg/ml in PBS/10% glycerol) are added following termination of the reaction. Plates are incubated 10 min. at 37 C., then equilibrated to room temperature, and counted on a Packard Topcount. Linear regressions are performed and IC50 's are calculated using computer software.
# A modified version of the above HCMV polymerase assay is performed as described above, but with the following changes: Compounds are diluted in 100% DMSO until final dilution into assay buffer. In the previous assay, compounds are diluted in 50% DMSO. 4.5 mM dithiotherotol (DTT) is added to the polymerase buffer.
# [1] = HCMV polymerase, SPA, modified assay: compounds in 100% DMSO, 4.5 mM DTT
# T1 sequence (P08546 whole entry): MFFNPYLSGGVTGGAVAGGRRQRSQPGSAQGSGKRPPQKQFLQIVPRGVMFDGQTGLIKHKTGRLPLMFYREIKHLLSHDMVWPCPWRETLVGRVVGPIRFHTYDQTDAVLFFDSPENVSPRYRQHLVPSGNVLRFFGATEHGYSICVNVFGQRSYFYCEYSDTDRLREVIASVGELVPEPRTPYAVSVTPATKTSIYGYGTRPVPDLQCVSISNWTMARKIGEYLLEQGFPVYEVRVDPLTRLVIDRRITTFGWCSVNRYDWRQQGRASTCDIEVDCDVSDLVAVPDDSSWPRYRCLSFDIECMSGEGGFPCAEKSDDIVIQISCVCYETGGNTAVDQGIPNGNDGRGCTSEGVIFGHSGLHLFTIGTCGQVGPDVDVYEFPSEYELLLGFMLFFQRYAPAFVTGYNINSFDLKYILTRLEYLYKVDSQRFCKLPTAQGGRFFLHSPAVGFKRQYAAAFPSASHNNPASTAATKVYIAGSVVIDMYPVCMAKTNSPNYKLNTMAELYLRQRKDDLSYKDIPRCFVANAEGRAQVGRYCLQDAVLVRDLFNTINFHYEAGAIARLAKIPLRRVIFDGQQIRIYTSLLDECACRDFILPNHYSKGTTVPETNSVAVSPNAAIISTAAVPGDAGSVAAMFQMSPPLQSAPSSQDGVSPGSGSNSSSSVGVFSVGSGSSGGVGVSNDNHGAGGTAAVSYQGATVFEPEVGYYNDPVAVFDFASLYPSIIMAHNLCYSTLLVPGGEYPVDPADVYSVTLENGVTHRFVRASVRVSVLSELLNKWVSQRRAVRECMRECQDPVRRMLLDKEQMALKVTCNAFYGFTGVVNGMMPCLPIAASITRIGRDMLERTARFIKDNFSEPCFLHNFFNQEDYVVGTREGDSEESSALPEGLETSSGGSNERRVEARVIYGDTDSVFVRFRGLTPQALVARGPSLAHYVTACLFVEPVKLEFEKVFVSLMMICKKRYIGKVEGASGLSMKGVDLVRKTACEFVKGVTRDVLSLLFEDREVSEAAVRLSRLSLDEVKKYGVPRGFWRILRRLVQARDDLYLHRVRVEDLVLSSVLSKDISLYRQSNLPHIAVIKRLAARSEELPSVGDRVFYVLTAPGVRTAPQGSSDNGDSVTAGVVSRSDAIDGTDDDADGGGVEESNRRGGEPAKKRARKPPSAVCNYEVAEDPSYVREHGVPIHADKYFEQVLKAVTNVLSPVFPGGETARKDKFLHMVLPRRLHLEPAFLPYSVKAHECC
SMILES,IC50 [1],IC50
CN(CCS(=O)(=O)O)C(=O)CCCCCCC(=O)OCCCc1ccc2c(c1)c(=O)c(C(=O)NCc1ccc(Cl)cc1)cn2C1CC1,> 20 µM,
"CC(C)n1cc(C(=O)NCc2ccc(Cl)cc2)c(=O)c2cc(C#CCO)ccc21 [Example 1, N-(4-Chlorobenzyl)-6-(3-hydroxy-1-propynyl)-1-isopropyl-4-oxo-1,4-dihydro-3-quinolinecarboxamide]",1.7 µM,
"CCC(C)n1cc(C(=O)NCc2ccc(Cl)cc2)c(=O)c2cc(C#CCO)ccc21 (centres unmarked) [Example 2, 1-(sec-butyl)-N-(4-chlorobenzyl)-6-(3-hydroxy-1-propynyl)-4-oxo-1,4-dihydro-3-quinolinecarboxamide]",1.6 µM,
"CCC(C)n1cc(C(=O)NCc2ccc(Cl)cc2)c(=O)c2cc(C#CCO)cc(OC)c21 (centres unmarked) [Example 3, 1-(sec-butyl)-N-(4-chlorobenzyl)-6-(3-hydroxy-1-propynyl)-8-methoxy-4-oxo-1,4-dihydro-3-quinolinecarboxamide]",2.3 µM,
"Cn1cc(C(=O)NCc2ccc(Cl)cc2)c(=O)c2cc(CCCO)cc(OC(CO)CO)c21 [Example 5, N-(4-Chlorobenzyl)-8-[2-hydroxy-1-(hydroxymethyl)ethoxy]-6-(3-hydroxypropyl)1-methyl-4-oxo-1,4-dihydro-3-quinolinecarboxamide]",1.6 µM,
"O=C(NCc1ccc(Cl)cc1)c1cn(CCCOC2CCCCO2)c2c(F)cc(CO)cc2c1=O (centres unmarked) [Example 6, N-(4-Chlorobenzyl)-8-fluoro-6-(hydroxymethyl)-4-oxo-1-[3-(tetrahydro-2H-pyran-2-yloxy)propyl]-1,4-dihydro-3-quinolinecarboxamide]",,7.2 µM
"Cn1cc(C(=O)NCc2ccc(Cl)cc2)c(=O)c2cc(C#CCO)cc(F)c21 [Example 8, N-(4-Chlorobenzyl)-8-fluoro-6-(3-hydroxy-1-propynyl)-1-methyl-4-oxo-1,4-dihydro-3-quinolinecarboxamide]",1 µM,
"Cn1cc(C(=O)NCc2ccc(Cl)cc2)c(=O)c2cc(/C=C\CO)cc(F)c21 [Example 9, N-(4-Chlorobenzyl)-8-fluoro-6-[(Z)-3-hydroxy-1-propenyl)-1-methyl-4-oxo-1,4-dihydro-3-quinolinecarboxamide]",< 0.78 µM,
"CCN(CC)CCn1cc(C(=O)NCc2ccc(Cl)cc2)c(=O)c2cc(C#CCO)cc(F)c21 [Example 10, N-(4-Chlorobenzyl)-1-[2-(diethylamino)ethyl]-8-fluoro-6-(3-hydroxy-1-propynyl)-4-oxo-1,4-dihydro-3-quinolinecarboxamide]",1.7 µM,
"CCCn1cc(C(=O)NCc2ccc(Cl)cc2)c(=O)c2cc(C#CCO)ccc21 [Example 11, N-(4-Chlorobenzyl)-6-(3-hydroxy-1-propynyl)-4-oxo-1-propyl-1,4-dihydro-3-quinolinecarboxamide]",1.5 µM,
"CN(C)CCn1cc(C(=O)NCc2ccc(Cl)cc2)c(=O)c2cc(C#CCO)ccc21 [Example 13, N-(4-Chlorobenzyl)-1-[2-(dimethylamino)ethyl]-6-(3-hydroxy-1-propynyl)-4-oxo-1,4-dihydro-3-quinolinecarboxamide, hydrochloride salt]",2.9 µM,
"O=C(NCc1ccc(Cl)cc1)c1cn(CCCN2CCCCC2)c2ccc(C#CCO)cc2c1=O [Example 15, N-(4-Chlorobenzyl)-6-(3-hydroxy-1-propynyl)-1-[3-(1-piperidinyl)propyl]-4-oxo-1,4-dihydro-3-quinolinecarboxamide]",4.1 µM,
"CN1CCCC1CCn1cc(C(=O)NCc2ccc(Cl)cc2)c(=O)c2cc(C#CCO)ccc21 (centres unmarked) [Example 16, N-(4-Chlorobenzyl)-1,4-dihydro-6-(3-hydroxy-1-propynyl)-1-[2-(1-methyl-2-pyrrolindinyl)ethyl]-4-oxo3-quinolinecarboxamide]",,2.8 µM
"O=C(NCc1ccc(Cl)cc1)c1cn(CCN2CCCC2)c2ccc(C#CCO)cc2c1=O [Example 18, N-(4-Chlorobenzyl)-6-(3-hydroxy-1-propynyl)-1-[2-(1-pyrolidinyl)ethyl]-4-oxo-1,4-dihydro-3-quinolinecarboxamide]",,2.7 µM
